Drawing on patent US10266515B2, “Therapeutic inhibitory compounds” (LifeSci Pharmaceuticals, Inc., priority 2013, dated 2019), this text covers IC50 for 1 substance.

The experiment concerns the target human plasma kallikrein (Homo sapiens (Human), UniProt P03952). The experiment in a line: In vitro enzyme inhibition of human plasma kallikrein (PFR-AMC cleavage). It is filed as biochemical. The note with it: Pro-Phe-Arg-AMC substrate, 37° C., read-out: hPK IC50. As for the experimental part: The ability of the compounds disclosed herein to inhibit human plasma kallikrein activity was quantified according to the procedures below.
A 10 mM solution of the test compound was made in DMSO. […] A control tube containing only DMSO is included. 16 μL of each compound test solution was combined with 384 μL of assay buffer (50 mM Tris-HCl pH 7.5, 150 mM NaCl, 0.01% Triton X-100) to yield a “4× test compound buffer stock”.
These solutions are hereby referred to as 4×hPK and 2×PFR-AMC, respectively.
50 μL was removed from this mixture and placed into duplicate wells on a Microfluor 1Black U-bottom microtiter plate (Thermo Scientific). This plate was incubated for 5 minutes at 37° C. To each well, 50 μL of pre-warmed 2×PFR-AMC was added to start the enzymatic reaction. Cleavage of PFR-AMC was monitored in a Biotek Synergy H4 reader set at 37° C. Readings are taken every 43 seconds for 1 hour. […] The IC50 is calculated using the Gen5 (Biotek Instruments).
The ability of the compounds in Table 3 to inhibit human plasma kallikrein activity was determined.

Sequence of human plasma kallikrein (P03952 391-638 limits assumed): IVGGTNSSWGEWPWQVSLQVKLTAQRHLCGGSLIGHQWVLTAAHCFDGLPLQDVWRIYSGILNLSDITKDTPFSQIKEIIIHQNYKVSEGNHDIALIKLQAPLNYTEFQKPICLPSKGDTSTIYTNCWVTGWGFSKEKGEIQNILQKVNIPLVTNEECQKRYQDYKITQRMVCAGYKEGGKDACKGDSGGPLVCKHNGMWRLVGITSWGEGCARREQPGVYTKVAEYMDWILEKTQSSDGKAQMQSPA
Sequence of human plasma kallikrein (P03952 20-390 partner limits assumed): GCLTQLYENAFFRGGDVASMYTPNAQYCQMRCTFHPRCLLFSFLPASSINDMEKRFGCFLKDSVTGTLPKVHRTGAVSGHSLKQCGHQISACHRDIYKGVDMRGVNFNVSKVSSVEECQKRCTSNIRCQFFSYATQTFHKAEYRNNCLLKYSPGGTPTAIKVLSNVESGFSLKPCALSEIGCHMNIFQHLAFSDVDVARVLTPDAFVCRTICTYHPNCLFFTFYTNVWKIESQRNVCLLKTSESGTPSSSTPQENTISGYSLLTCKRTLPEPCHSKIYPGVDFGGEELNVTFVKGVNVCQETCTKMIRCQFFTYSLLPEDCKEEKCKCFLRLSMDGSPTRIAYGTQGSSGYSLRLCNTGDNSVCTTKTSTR

Turning to “N-((3-chloro-6-fluoro-1H-indol-5-yl)methyl)-2-((2-isocyanoquinolin-6-yl)methyl)isonicotinamide [Example 130]”, the IC50 was below 100 nM.
